This note sets out measurements from ChEMBL document CHEMBL5244275, “Geminal Diheteroatomic Motifs: Some Applications of Acetals, Ketals, and Their Sulfur and Nitrogen Homologues in Medicinal Chemistry and Drug Design” (J Med Chem, 2021).

Numbered stars: 1 amine (or outer) side, 2 acyl side, 3 side chain; on linkers, the order of the positions; unused ones are H or OH. Bridge positions count the residues as written; N and C are the ends. Square brackets hold non-standard residues; d marks the D form. Peptide text beside a SMILES is read from it. * marks the point of attachment. Orn(4R-OH,5R-OCH2CH2NMe3+) = C[N+](C)(C)CCO[C@@H](N[*:3])[C@H](O)C[C@H](N[*:1])C(=O)[*:2]; pTerphenylCO(4''-OnC5H11) = CCCCCOc1ccc(-c2ccc(-c3ccc(C(=O)*)cc3)cc2)cc1; hTyr(3S-OH,4S-OH) = N[C@H](C(=O)O)[C@H](O)[C@@H](O)c1ccc(O)cc1; Pro(3S-OH,4S-Me) = C[C@H]1CN[C@H](C(=O)O)[C@H]1O; Hyp = O=C(O)[C@@H]1C[C@@H](O)CN1

Series [1] can be described thus: Stability in dog plasma assessed as drug degradation measured after 44 hrs. The format is ADME, cell-free, Canis lupus familiaris. The note with it: read-out: Drug degradation.
Series [2] is described as follows: Stability in monkey plasma assessed as drug degradation measured after 44 hrs. Particulars: rhesus monkey, read-out: Drug degradation. The format is ADME, cell-free, Macaca mulatta.
Series [3] is described as follows: Stability in human plasma assessed as drug degradation measured after 44 hrs. Format: ADME, cell-free. Particulars: read-out: Drug degradation.
Series [4] can be described thus: Stability in rat plasma assessed as drug degradation measured after 44 hrs. Particulars: read-out: Drug degradation. The format is ADME, cell-free.
Series [5] is described as follows: Terminal half-life in rhesus monkey at 40 mg/kg, po. The format is ADME, organism-based, Macaca mulatta. Particulars: in vivo, read-out: beta t1/2 (converted).
The nature of series [6]: Terminal half-life in iv dosed rhesus monkey. The note with it: in vivo, read-out: beta t1/2 (converted). The format is ADME, organism-based, Macaca mulatta.
A short description of series [7]: Oral bioavailability in rat. The format is ADME, organism-based. Particulars: in vivo.
Series [8] can be described thus: Terminal half-life in iv dosed rat. Format: ADME, organism-based. The note with it: in vivo, read-out: beta t1/2 (converted).
Series [9] deals with T1, Neutrophil elastase (Homo sapiens) (UniProt P08246).
T1 sequence (whole entry): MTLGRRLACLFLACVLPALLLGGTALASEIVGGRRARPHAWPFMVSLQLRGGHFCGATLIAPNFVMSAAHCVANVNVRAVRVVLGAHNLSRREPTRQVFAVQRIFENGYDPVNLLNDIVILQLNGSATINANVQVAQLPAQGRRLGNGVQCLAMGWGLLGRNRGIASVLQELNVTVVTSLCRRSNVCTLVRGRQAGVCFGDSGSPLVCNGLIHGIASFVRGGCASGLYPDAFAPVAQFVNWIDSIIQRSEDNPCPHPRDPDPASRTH
In words: Time-dependent inhibition of human leukocyte elastase assessed as observed binding constant.

The nature of series [10]: Oral bioavailability in monkey. The format is ADME, organism-based, Macaca mulatta. The note with it: rhesus monkey, in vivo.
Series [11] is described as follows: Oral bioavailability in human. Format: ADME, organism-based. The note with it: in vivo.
The subject of series [12] is Mus musculus. The series is described as follows: Anticonvulsant activity in MES induced mouse model of seizure at 10 mg/kg, po measured after 4 hrs relative to control. The format is functional.
The nature of series [13]: Half-life in human plasma. Format: ADME.
A short description of series [14]: Drug excretion in human urine assessed as unchanged drug excreted. Format: ADME. Particulars: read-out: Drug excretion.
The nature of series [15]: Half-life in human. The format is ADME.
The target of series [16] is Polymerase acidic protein (Influenza A virus (A/Puerto Rico/8/1934(H1N1)), UniProt P03433). In words: Inhibition of Influenza A virus CEN.
Series [17] deals with Mus musculus. The series is described as follows: Ex vivo inhibition of FAAH in po dosed mouse brain assessed as drug concentration required to inhibit [3H]ethanolamine degradation. Particulars: read-out: ID50 (the source's name). The format is functional.
Series [18] concerns Mus musculus. In words: Ex vivo inhibition of FAAH in ip dosed mouse brain assessed as drug concentration required to inhibit [3H]ethanolamine degradation. The format is functional. The note with it: read-out: ID50 (the source's name).
In the next series the test system is K562. The series is described as follows: Anticancer activity against human K562 cells. Format: functional, cell-based.
Another series concerns HEp-2. The series is described as follows: Anticancer activity against human HEp-2 cells. Format: functional, cell-based.
The next series relates to CCRF-CEM. In words: Anticancer activity against human CCRF-CEM cells. Format: functional, cell-based.
The test system of the next series is L1210. In words: Anticancer activity against mouse L1210 cells. Format: functional, cell-based.
Series [19] addresses Sodium/glucose cotransporter 2 (Homo sapiens, UniProt P31639). In words: Inhibition of human SGLT2.
A short description of series [20]: Stability of the compound assessed as compound hydrolysis by measuring relative rate constant by dilatometric method. The format is physicochemical.
The nature of series [21]: Tmax in rhesus monkey at 40 mg/kg, po. Format: ADME, organism-based, Macaca mulatta. Particulars: in vivo.
The nature of series [22]: Antiplasmodial activity against Plasmodium berghei NK 173 infected in ICR (CD-1) mouse assessed as inhibition of parasite growth administered intraperitoneally for four days. Particulars: NK 173, 96 h.
The next series concerns Plasmodium falciparum. In words: Antiplasmodial activity against Plasmodium falciparum FCB1 assessed as inhibition of parasite growth. Format: functional, organism-based.
A short description of series [23]: Stability of the compound at pH 2 assessed as half-life. Format: physicochemical. Particulars: buffer.
The species entered for the next series is Homo sapiens. In words: Inhibition of Leukotriene B4 production in human whole blood. The format is functional.
Series [24] in a line: Inhibition of Leukotriene B4 production in human blood Polymorphonuclear neutrophil cells. Format: functional, tissue-based.
Series [25] is filed under the species Mus musculus. In words: Analgesic activity in mouse assessed as protection against phenylbenzoquinone-induced writhing. Format: functional.
Series [26] can be described thus: Drug metabolism at pH 2 assessed as parent compound remaining measured after 120 mins. The format is physicochemical. The note with it: read-out: Drug metabolism.
In series [27] the test system is Mus musculus. In words: Anticonvulsant activity in MES induced mouse model of seizure at 75 mg/kg, po measured after 4 hrs relative to control. The format is functional.
Series [28] in a line: Drug recovery in mouse urine. The format is ADME. The note with it: pooled result: one value given for 8 cell lines, strains, targets or settings, read-out: Drug recovery.

Chain of Sodium/glucose cotransporter 2 (P31639 whole entry): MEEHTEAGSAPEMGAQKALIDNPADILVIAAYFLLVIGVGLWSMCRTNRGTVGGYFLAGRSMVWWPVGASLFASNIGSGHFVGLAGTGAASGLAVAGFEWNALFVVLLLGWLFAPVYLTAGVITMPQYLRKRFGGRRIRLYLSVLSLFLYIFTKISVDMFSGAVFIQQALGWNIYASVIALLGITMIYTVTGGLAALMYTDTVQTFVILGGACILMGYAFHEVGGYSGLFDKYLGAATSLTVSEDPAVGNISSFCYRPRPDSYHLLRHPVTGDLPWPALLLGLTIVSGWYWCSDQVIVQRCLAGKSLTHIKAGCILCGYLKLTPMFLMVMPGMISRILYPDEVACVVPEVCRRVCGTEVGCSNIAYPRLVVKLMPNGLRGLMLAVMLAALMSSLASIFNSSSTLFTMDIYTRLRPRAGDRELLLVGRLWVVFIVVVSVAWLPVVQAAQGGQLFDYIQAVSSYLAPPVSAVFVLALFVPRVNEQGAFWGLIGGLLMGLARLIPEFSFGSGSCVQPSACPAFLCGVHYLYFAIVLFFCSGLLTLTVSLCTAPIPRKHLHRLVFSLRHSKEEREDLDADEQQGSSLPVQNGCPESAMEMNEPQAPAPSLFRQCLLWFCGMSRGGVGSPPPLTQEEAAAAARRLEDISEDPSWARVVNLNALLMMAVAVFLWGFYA

As for `CCCCCOc1ccc(-c2ccc(-c3ccc(C(=O)N[C@H]4C[C@@H](O)[C@@H](OCC[N+](C)(C)C)NC(=O)[C@@H]5[C@@H](O)[C@@H](C)CN5C(=O)[C@H]([C@@H](C)O)NC(=O)[C@H]([C@H](O)[C@@H](O)c5ccc(O)cc5)NC(=O)[C@@H]5C[C@@H](O)CN5C(=O)[C@H]([C@@H](C)O)NC4=O)cc3)cc2)cc1` [REZAFUNGIN] ({pTerphenylCO(4''-OnC5H11)}-[Orn(4R-OH,5R-OCH2CH2NMe3+)]T[Hyp][hTyr(3S-OH,4S-OH)]T[Pro(3S-OH,4S-Me)]; lactam 1-C), the metabolised at 44 h came to 21% in series [1], 6% in series [2], 7% in series [3] and 9% in [4].

Turning to `CCC[C@@H](NC(=O)N1C(=O)C(CC)(CC)[C@@H]1Oc1ccc(CC(=O)O)cc1)c1ccc(C)cc1`, the half-life in [5] is 6 h; in series [6], 5.8 h; in [8], 2.3 h. Besides, the bioavailability in series [7] is 100%; in series [10], 23%. In addition, the K in [9] is 6.2 10^5/M/s.

In series [11], `CC1(C)O[C@@H]2[C@@H](CO[C@@]3(COS(N)(=O)=O)OC(C)(C)O[C@@H]23)O1` [TOPIRAMATE] registered a bioavailability of 80%. In the series on Mus musculus [12], this molecule yielded an Activity of 80%. In [13], the half-life is 21 h. The dose excreted in [14] came out at 70%.

As for `O=C1c2c(O)c(=O)ccn2N([C@@H]2c3ccccc3SCc3c2ccc(F)c3F)[C@@H]2COCCN12` [BALOXAVIR], the half-life in [15] is 79 h. In [16], this molecule displayed a 50% inhibitory concentration (IC50) of 2.5 nM.

Take `COc1ccc2c(cccc2[C@H]2CO[C@H](CCCNC(=O)OCC(N)=O)OC2)c1`: the ED50 in the series on Mus musculus [17] stood at 0.17 mg/kg; with Mus musculus [18] it was 0.1 mg/kg.

In the case of `Nc1nc(F)nc2c1ncn2[C@@H]1O[C@H](COP(=O)(O)O)[C@@H](O)[C@@H]1O` [FLUDARABINE PHOSPHATE], the IC50 in the series with K562 was determined as 150 nM; with HEp-2 it was 9000 nM; with CCRF-CEM, 400 nM; with L1210, 3000 nM.

Molecule `CCOc1ccc(Cc2cc([C@]34CO[C@](CO)(O3)[C@@H](O)[C@H](O)[C@H]4O)ccc2Cl)cc1` showed a concentration for half-maximal inhibition (IC50) in series [19] of 714 nM.

`C1COCO1`: the K in series [20] was 1.

Take `CCC[C@@H](NC(=O)N1C(=O)C(CC)(CC)[C@@H]1Oc1ccc(C(=O)N2CCN(C)CC2)cc1)c1ccc2c(c1)OCO2`: in series [5], the half-life was 6 h. Also, the bioavailability was 65% in series [7] and 39% in series [10]. Besides, in series [21], the time of peak concentration (Tmax) was 8 h.

Molecule `COC(=O)OCOc1c2n(ccc1=O)N([C@@H]1c3ccccc3SCc3c1ccc(F)c3F)[C@@H]1COCCN1C2=O` [BALOXAVIR MARBOXIL] returned an IC50 in [16] of 530 nM.

With `CO[C@H]1O[C@@H]2O[C@@]3(C)CC[C@H]4[C@H](C)CC[C@@H]([C@H]1C)[C@@]24OO3`, in series [22], the ED50 amounted to 8.4 µmol/kg. The IC50 in the series on Plasmodium falciparum turned out to be 3.5 nM. The half-life in series [23] is 11 h.

Consider `O=C1OCc2c1cc1cc(OCc3cccc(C4(O)CC5COC(C4)O5)c3)ccc1c2-c1ccoc1` (stereo not drawn), for which the IC50 in the series listed under Homo sapiens is 180 nM; in [24] it was 7 nM.

Regarding `c1ccc([C@]23OC[C@H](CCn4c2nc2ccccc24)O3)cc1`, the ED50 in the series filed under Mus musculus [25] amounted to 30 mg/kg. For the same molecule, the remaining at 2 h in series [26] amounted to 93.5%.

Regarding `CC1(C)O[C@H]2[C@H](O)[C@H](O)CO[C@@]2(COS(N)(=O)=O)O1`, the Activity with Mus musculus [27] worked out at 40%.

For `CC1(C)O[C@@H]2[C@@H](CC[C@@]3(COS(N)(=O)=O)OC(C)(C)O[C@@H]23)O1`, in series [28], the dose excreted is 89%.
